Measurements published in patent US10596296B2, “Heparan sulphates” (Agency for Science, Technology and Research, priority 2014, dated 2020).
Entries after “also recorded” stand apart in the source; their conditions may differ.

What was measured:
[1] = test system: TGF-β1 signaling (pSMAD2, pSMAD3) in hMSCs; assay: Western blotting of pSMAD2/pSMAD3 in hMSCs treated with TGF-β1 and GAG; format: cell-based, human; settings: 6, 12, 24 and 48 h
Description: Primary hMSCs (Lonza) were isolated from the bone marrow mononuclear cells of a young healthy adult human donor by plastic adherence and characterized as previously described (30,31). The adherent cells were maintained in a basal media consisting of DMEM-low glucose (1000 mg/l, DMEM-LG) supplemented with 10% fetal calf serum, 100 U/ml penicillin, 100 μg/ml streptomycin and 2 mM L-glutamine, and cultured under standard conditions at 37° C. and 5% CO2 in a humidified atmosphere. Media replacement was every three days. Cells were detached with 0.125% trypsin/Versene (pH 7.0) upon reaching 75-80% confluence, and re-plated at a density of 3,000 cells/cm^2 under the same culture conditions. All experiments were carried out with cells at passage 5.
Human MSCs were cultured in 6-well plates in basal media for 24 h at a density of 10,000 cells/cm^2. TGF-β1 treatments were then prepared at either 1 ng/ml or 5 ng/ml alone or in the presence of either 10 μg/ml or 40 μg/ml of full length heparin, or 1 ng/ml of TGF-β1 with 10 μg/ml size-fractionated or selectively desulfated heparin, HS^PM, HS16+ or HS16−, and incubated at room temperature for 10 min before being added to the cells. Latent TGF-β1 (LTGF-β1) treatments were similarly prepared at 3.3 ng/ml alone or with 10 μg/ml of the various GAGs described above. For inhibitor studies, the cells were pre-treated for 30 min with 10 μM SB431542 (Sigma-Aldrich) or DMSO before treatment with TGF-β1. […] Samples were then immunoblotted with antibodies against SMAD2/3 (#3102, Cell Signaling), phosphorylated SMAD2 (pSMAD2, #3108, Cell Signaling), phosphorylated SMAD3 (pSMAD3, #9520, Cell Signaling) and actin (MAB1501R, Millipore). Densitometry was carried out using Quantity One software (version 4.6.6, Bio-Rad).

[2] = test system: chondrogenic differentiation of hMSCs; assay: qPCR of chondrogenic micromass pellets (Example 2); format: cell-based, human
Description: Total RNA was isolated from chondrogenic micromass pellets using TRIZOL reagent (Life Technologies, CA, USA) according to the manufacturer's protocol. Reverse transcription was carried out on 1 μg RNA using the SuperScript® VILO™ cDNA Synthesis Kit (Life Technologies) following the manufacturer's instructions, with the incubation at 42° C. being carried out for 2 h instead of 1 h. Each qPCR contained 40 ng cDNA, 1 μL TaqMan® primer-probe mix per gene, and 10 μL Taqman® Fast Universal PCR Master Mix (Life Technologies) in a final volume of 20 μL. Thermal cycling conditions were 95° C. for 20 s, followed by 45 cycles of 95° C. for 1 s and 60° C. for 20 s. Each qPCR was run in duplicate and gene expression was normalised to HPRT1 expression to obtain the ΔCt value. The average value of biological triplicates was taken. Chondrogenic micromass pellets cultured in media without GAG or TGF-β1 were used as controls (ΔΔCt). Relative expression levels for each primer set were expressed as fold changes by the 2-ΔΔCt method [Livak, K. J. and T. D. Schmittgen, Analysis of Relative Gene Expression Data Using Real-Time Quantitative PCR and the 2-ΔΔCT Method. Methods, 2001. 25(4): p. 402-408]. The following TaqMan® primer-probe assays (Life technologies) were used:
(§1) In order to assess the effects of HS16+ve on the chondrogenic differentiation of hMSCs in vitro, it was first necessary to establish the effects of TGF-β1 alone. Chondrogenic differentiation was carried out using a modified micromass culture system. [Zhang, L., et al., Chondrogenic differentiation of human mesenchymal stem cells: a comparison between micromass and pellet culture systems. Biotechnol Lett, 2010. 32(9): p. 1339-1346.]. Briefly, passage 4 hMSCs were harvested and resuspended in chemically defined chondrogenic media (PT-3003, Lonza, MD, USA) at 2×10^7 cells/mL. Droplets of 12.5 μL were then seeded into the middle of each well in a 24-well plate and left to adhere at 37° C. for 2 h, after which, 500 μL of chondrogenic media supplemented with either 1 or 10 ng/mL of TGF-β1 (100-210, PeproTech) alone or with either 5 or 10 μg/mL of heparin (Sigma-Aldrich), porcine mucosal HS (HSPM) (Celsus laboratories), HS16+ve or HS16-ve was added to each well. The cell droplets coalesced into spherical masses after 24 h. Media was changed every 3 days and the micromasses harvested on days 3, 7, 14 and 21.
Next, hMSCs were differentiated for 21 days in the presence of 1 ng/mL TGF-β1 alone (1 TGF-β1) or in combination with 10 μg/mL of GAG (heparin, HSPM, HS16+ve or HS16−ve) or with 10 ng/mL TGF-β1 (10 TGF-β1) as a positive control.

TGF-β1 = biological target: T1, TGF-β1 (Homo sapiens, UniProt P01137); assay: Differential scanning fluorimetry (DSF) of TGF-β1; format: binding
T1 construct: full length mature TGF-β1 is 112 amino acids in length
Description: DSF was performed on a 7500 Fast Real PCR System (software version 1.4, Applied Biosystems), as described previously (34,35). TGF-β1 (2.5 μM) was tested with or without heparin (25 μM). To facilitate the melting of TGF-β1, 10 mM of dithiothreitol (DTT) was added to the reaction mix. Experiments were run as previously described (34). First derivatives of the melting curves were calculated using Origin 7 (OriginLab Corp.) to determine the melting temperature of TGF-β1 under the various conditions.

[3] = test system: chondrogenic differentiation of hMSCs; assay: Alcian blue staining of chondrogenic micromass pellets; format: cell-based, human
Description: as §1

[4] = test system: chondrogenic differentiation of hMSCs; assay: Wet weight of chondrogenic micromass pellets; format: cell-based, human; settings: 10 ng/mL TGF-β1 vs control; days 3, 7, 14 and 21
Description: as §1
Wet weights of the resulting control (Ctrl) and TGF-β1-treated (10 ng/mL) (TGF-β1) micromass pellets were taken at days 3, 7, 14 and 21 (FIG. 15).

[5] = 10 ng/mL TGF-β1, days 3, 7, 14 and 21

T1 sequence (P01137 279-390 limits assumed): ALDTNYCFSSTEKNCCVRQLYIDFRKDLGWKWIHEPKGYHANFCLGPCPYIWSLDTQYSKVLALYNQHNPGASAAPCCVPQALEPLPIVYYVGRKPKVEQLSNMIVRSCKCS

## TGF-β1: transforming growth factor-β1 protein (PeproTech)
[1]; 1 ng/mL TGF-β1
  pSMAD2 signal: quite intense at 6 h post treatment, and started to subside from 12 h onwards
[1]; 5 ng/mL and 10 ng/mL TGF-β1
  pSMAD2 signal: remain saturated across all the time points tested
  pSMAD3 signal: returned to background levels by 24 h
[2]; 10 ng/mL TGF-β1
  Type II collagen transcripts: only detectable in TGF-β1-treated pellets and undifferentiated hMSCs
  type X collagen transcripts relative to control pellets: extremely high levels
[2]; [5]
  COMP expression relative to untreated control pellets: increased expression
  SOX9 expression relative to untreated control pellets: increased expression
[2]; 10 ng/mL TGF-β1, days 7, 14 and 21
  aggrecan expression relative to untreated control pellets: increased expression
[2]; 21 days
  COMP expression, high (10 ng/mL) TGF-β1 relative to low dose TGF-β1 alone: did not significantly alter COMP expression
[2]; day 21
  type X collagen expression, high TGF-β1 relative to low TGF-β1: significant increase
TGF-β1; with 10 mM DTT, without heparin
  melting temperature of TGF-β1: 44 °C
TGF-β1; without DTT
  melting temperature of TGF-β1 alone: 66 °C
[3]; 21 days
  GAG production by Alcian blue staining, 10 ng/mL vs 1 ng/mL TGF-β1: increase in GAG production and deposition; also recorded: modest increase in GAG production
[3]; day 21, 10 ng/mL TGF-β1
  GAG content by Alcian blue staining vs control pellets: more GAGs
[4]
  wet weight of micromass pellets over time: weight loss was less pronounced
